Experiments:
Format in all cases: in vivo, human
[1] = tested on: patients with MDD and an inadequate response to an SSRI or SNRI; experiment: HAMD-17 anxiety/somatization subscale score, MDD study; conditions: for HAMD-17 anxiety/somatization subscale score LSM (SE) Change from Baseline to Week 5: 34 mg QD + SSRI/SNRI
Experimental: Key endpoints were change from baseline to the end of each stage for the HAMD-17 total score and SDS score.
All patients continued on their SSRI or SNRI at a stable dose for the duration of the study.
Clinic visits occurred weekly from Weeks 1 through 10. The MADRS was administered at screening and baseline. The HAMD-17, SDS, CGI, and KSS were administered at baseline and weekly during the study. Other endpoints such as the SF-12 were administered at baseline and Weeks 5 and 10. Treatment response was defined as a reduction of 50% from baseline for the HAMD-17 total score, and remission was defined as a HAMD-17 total score
A higher HAMD-17 anxiety/somatization subscale score indicates more severe depression with anxiety symptoms.

[2] = tested on: patients with MDD and an inadequate response to an SSRI or SNRI; experiment: HAMD-17 Item 14 (sexual interest), Study ACP-103-042; conditions: Week 5
Source text: The determination of the subject's status and eligibility for randomization in Stage 2 was made in a double-blind manner.

[3] = tested on: adults with Parkinson's disease and depression; experiment: HAMD-17 total score, open-label study in Parkinson's disease and depression; conditions: Week 8; interim, first 31 patients
Experimental: (§1) Subjects can receive treatment as either monotherapy or adjunctively if inadequately controlled with SSRI/SNRI monotherapy. A primary endpoint of the study is change from baseline to Week 8 in the Hamilton Depression Scale 17-item (HAMD-17) total score. Secondary endpoints include Clinical Global Impression (CGI) scales (improvement and severity), Scale of Outcomes in PD-Sleep (SCOPA), and quality of life as measured by EuroQol-5 dimensions-5 levels (EQ-5D-5L).
Subjects were assessed for eligibility and prohibited medications were discontinued. After all screening assessments were completed, eligible subjects returned to the clinic for Baseline evaluation. After Baseline assessments were completed, subjects were enrolled and received the first dose of pimavanserin. Study medication were provided to the subjects to take home with instructions to take the medication approximately the same time each day, and return all used containers and unused study drug as scheduled.
(§2) At approximately 2, 4, and 6 weeks after start of dosing of study drug subjects returned to the clinic for assessments. Safety measures, HAMD-17, C-SSRS (Columbia Suicide Severity Rating Scale), CGI-S(Clinical Global Impression-Severity), and CGI-I (Clinical Global Impression-Improvement) were evaluated at all visits. […]
The HAMD-17 total score was analyzed using mixed model for repeated measures (MMRM). […]

[4] = tested on: adults with Parkinson's disease and depression; experiment: SCOPA Sleep, open-label study in Parkinson's disease and depression; conditions: interim, first 31 patients
Source text: “Scale of Outcomes in Parkinson's Disease (SCOPA) Sleep” is a scale developed for research in Parkinson disease to evaluate nighttime sleep and daytime sleepiness and has high internal consistency for the nighttime sleep and daytime sleepiness scales (0.88 and 0.91, respectively), and test-retest reliabilities (0.94 and 0.89, respectively). Scores on the SCOPA Sleep Scale show high correlations between the nighttime sleep scale and the Pittsburgh Sleep Quality Index (0.83), and between the daytime sleepiness scale and the Epworth Sleepiness Scale (0.81). The coefficient of variation of both the nighttime sleep and the daytime sleepiness scale can be higher than that of the Pittsburgh Sleep Quality Index and the Epworth Sleepiness Scale, indicating a better ability to detect differences between individuals. (Marinus J, Visser M, van Hilten J J, Lammers G J, Stiggelbout A M. Sleep. 2003; 26(8):1049-1054.)
as §1, §2
Continuous secondary efficacy endpoints (CGI-I, CGI-S, SCOPA, and EQ-5D-5L) were analyzed using similar MMRM models as for the primary efficacy endpoint, except that the Baseline value of the endpoint being analyzed was included in the model as a covariate instead of the Baseline HAMD-17 total score. […]

[5] = tested on: adults with Parkinson's disease and depression; experiment: Adverse events, open-label study in Parkinson's disease and depression; conditions: of the first 31 patients; most common falls, UTI, diarrhea, nausea
Source text: as §1
Adverse events were classified into standard terminology using the Medical Dictionary for Regulatory Activities (MedDRA). Treatment-emergent adverse events (TEAEs), TEAEs leading to discontinuation, TEAEs related to study drug, TEAEs by maximum severity, serious adverse events (SAEs), and SAEs related to study drug were summarized.

[6] = Stage 1, subgroup baseline subscale score ≥7
[7] = Stage 2, subgroup baseline subscale score ≥7

CC(C)COc1ccc(CNC(=O)N(Cc2ccc(F)cc2)C2CCN(C)CC2)cc1 [pimavanserin, N-(4-Fluorophenylmethyl)-N-(1-methylpiperidin-4-yl)-N′-(4-(2-methylpropyloxy)phenylmethyl)carbamide]
HAMD-17 anxiety/somatization subscale score Diff in LSM (SE) vs placebo ([1]; Stage 1): −1.5 (0.41)
HAMD-17 anxiety/somatization subscale score Effect Size (Cohen's d) ([1]; Stage 1): 0.634
HAMD-17 anxiety/somatization subscale score LSM (SE) Change from Baseline to Week 5 ([1]; Stage 1): −3.7 (0.36)
HAMD-17 anxiety/somatization subscale score LSM (SE) Change from Baseline to Week 5 ([1]; Stage 1, subgroup baseline anxiety/somatization subscale score ≥7): −5.0 (0.56)
HAMD-17 anxiety/somatization subscale score Diff in LSM (SE) vs placebo [1, 6]: −2.2 (0.66)
HAMD-17 anxiety/somatization subscale score Effect Size (Cohen's d) [1, 6]: 0.781
HAMD-17 anxiety/somatization subscale score Diff in LSM (SE) vs placebo ([1]; Stage 2): 0.0 (0.48)
HAMD-17 anxiety/somatization subscale score Effect Size (Cohen's d) ([1]; Stage 2): −0.007
HAMD-17 anxiety/somatization subscale score LSM (SE) Change from Baseline to Week 5 ([1]; Stage 2): −0.6 (0.33)
HAMD-17 anxiety/somatization subscale score LSM (SE) Change from Baseline to Week 5 ([1]; Stage 2, subgroup baseline anxiety/somatization subscale score ≥7): −1.3 (0.44)
HAMD-17 anxiety/somatization subscale score Diff in LSM (SE) vs placebo [1, 7]: 0.1 (0.66)
HAMD-17 anxiety/somatization subscale score Effect Size (Cohen's d) [1, 7]: −0.067
HAMD-17 Item 14 (sexual interest) Cohen's d effect size [2]: 0.574
HAMD-17 Item 14 (sexual interest) LS Mean (SE) change from baseline ([2]; 34 mg QD + SSRI/SNRI): −0.7 (0.12)
patients reaching remission (HAMD-17≤7) [3]: 35.5%
patients with ≥50% improvement in the HAMD-17 [3]: 45.2%
SCOPA-Daytime Sleepiness change from Baseline to Week 8 [4]: −2.1 (0.4)
SCOPA-Global Sleep Quality change from Baseline to Week 8 [4]: −1.0 (0.4)
SCOPA-Nighttime Sleep change from Baseline to Week 8 [4]: −2.1 (0.7)
patients reporting adverse events [5]: 13
